Measurements published in patent US5571892A, “Polypeptide and anti-HIV drug prepared therefrom” (priority 1990, dated 1996).
Converted amounts (≈) assume the structure as drawn. Where a SMILES comes first, the peptide text is derived from it.

How the values were obtained:
[1] = system: human immunodeficiency virus (HIV); conditions: for Anti-HIV activity SI / Anti-HIV activity EC50: Table 3; for Anti-HIV activity SI: CC50/EC50; for Anti-HIV activity EC50: tested likewise in Example 2, HIV-infected MT-4 cells; for EC 50 (concentration at which cellular affection due to HIV infection is 50% inhibited): HIV-infected MT-4 cells, MOI 0.001, 5 days, MTT method
Method: HIV-infected MT-4 cells (2.5×10^4 cells/well, multiplicity of infection (MOI): 0.001) immediately after the infection are added together with a test substance with various changes of the concentration to a 96-well microtiter plate. After incubation at […] for 5 days in a CO2 incubator, the number of survivor cells is measured by the MTT method [Pauwels et al.; J. Virol. Methods, 20, 309-321 (1988)]. […] On the other hand, in order to know the cytotoxicity of the test substance on the MT-4 cells, virus-non-infected cells are incubated, likewise as above, together with the test compound with various changes of the concentration. […] Further, the rough ratio of CC 50 to EC 50 (CC 50/EC 50) is expressed as an effective ratio (SI).

MT-4 cells = experiment: Cytotoxicity on virus-non-infected MT-4 cells (MTT method); assay type: cell-based; conditions: for CC 50 (50% cytotoxic concentration): Table 2, virus-non-infected MT-4 cells, 5 days, MTT method
Method: HIV-infected MT-4 cells (2.5×10^4 cells/well, multiplicity of infection (MOI): 0.001) immediately after the infection are added together with a test substance with various changes of the concentration to a 96-well microtiter plate. After incubation at 7° C. for 5 days in a CO2 incubator, the number of survivor cells is measured by the MTT method [Pauwels et al.; J. Virol. […] On the other hand, in order to know the cytotoxicity of the test substance on the MT-4 cells, virus-non-infected cells are incubated, likewise as above, together with the test compound with various changes of the concentration.

Molecule	Anti-HIV activity SI [1]	Anti-HIV activity EC50 [1]	EC 50 (concentration at which cellular affection due to HIV infection is 50% inhibited) ([1]; Table 2)	CC 50 (50% cytotoxic concentration) (MT-4 cells)	SI (effective ratio, CC 50/EC 50) ([1]; Table 2, rough ratio of CC 50 to EC 50)	Concentration for antiviral activity relative to Tachyplesin I ([1]; compared with Tachyplesin I, Table 2 data)	Cytotoxicity compared with Tachyplesin I (MT-4 cells; MT-4 cells, Table 2 data)	CC 50 relative to azidothymidine (times higher) (MT-4 cells; compared with azidothymidine, Table 2 data)
(1): polypeptide of the invention, SEQ ID NO: 2, shown only as drawing (WCYRKCYRGICYRKCR)	30	6.9 µg/mL						
[H][C@]12CSSC[C@]([H])(NC(=O)[C@]([H])([C@@H](C)CC)NC(=O)CNC(=O)[C@H](CCCNC(=N)N)NC(=O)[C@H](Cc3ccc(O)cc3)NC1=O)C(=O)N[C@@H](Cc1ccc(O)cc1)C(=O)N[C@@H](CCCNC(=N)N)C(=O)N[C@@H](CCCNC(=N)N)C(=O)N[C@H](C(=O)N[C@@H](CCCNC(=N)N)C(N)=O)CSSC[C@H](NC(=O)[C@H](Cc1c[nH]c3ccccc13)NC(=O)[C@@H](N)CCCCN)C(=O)N[C@@H](Cc1ccccc1)C(=O)N[C@@H](CCCNC(=N)N)C(=O)N[C@@H](C(C)C)C(=O)N2 [Tachyplesin I, reference compound] (HELM PEPTIDE1{K.W.C.F.R.V.C.Y.R.G.I.C.Y.R.R.C.R.[am]}$PEPTIDE1,PEPTIDE1,3:R3-16:R3|PEPTIDE1,PEPTIDE1,7:R3-12:R3$$$V2.0; N-terminus and C-terminus assumed; bridges inferred)			18.1 µg/mL (≈ 8 µM)	49 µg/mL (≈ 21.6 µM)				
CC[C@H](C)[C@@H]1NC(=O)CNC(=O)[C@H](CCCNC(=N)N)NC(=O)[C@H](Cc2ccc(O)cc2)NC(=O)[C@@H]2CSSC[C@H](NC1=O)C(=O)N[C@@H](Cc1ccc(O)cc1)C(=O)N[C@@H](CCCNC(=N)N)C(=O)N[C@@H](CCCCN)C(=O)N[C@H](C(=O)N[C@@H](CCCNC(=N)N)C(N)=O)CSSC[C@H](NC(=O)[C@H](Cc1c[nH]c3ccccc13)NC(=O)[C@@H](N)CCCNC(=N)N)C(=O)N[C@@H](Cc1ccc(O)cc1)C(=O)N[C@@H](CCCNC(=N)N)C(=O)N[C@@H](CCCCN)C(=O)N2 [Polypeptide (A)] (HELM PEPTIDE1{R.W.C.Y.R.K.C.Y.R.G.I.C.Y.R.K.C.R.[am]}$PEPTIDE1,PEPTIDE1,3:R3-16:R3|PEPTIDE1,PEPTIDE1,7:R3-12:R3$$$V2.0; N-terminus assumed)	1144	0.039 µg/mL	0.35 µg/mL (≈ 0.152 µM)	39 µg/mL (≈ 16.9 µM)	110	1/50	somewhat stronger cytotoxicity	60 times
